PubChem BioAssay (NCI)
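Dose response: 5 concentrations. Exposure: 48 h. Format: 96-well plates. Endpoint: linear interpolation; highest concentration if not reached. GI50 marks 50% less growth. TGI denotes the concentration required for complete inhibition of growth.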

Experiments:
Experiment in all cases: NCI anticancer screen, dose series, 48 h
[1] = system: 786-0 renal
[2] = system: A498 renal
[3] = system: A549 NSCLC
[4] = system: ACHN renal
[5] = system: BT-549 breast
[6] = system: CAKI-1 renal
[7] = system: CCRF-CEM leukemia
[8] = system: COLO 205 colon
[9] = system: DU-145 prostate
[10] = system: EKVX NSCLC
[11] = system: HCC-2998 colon
[12] = system: HCT-116 colon
[13] = system: HCT-15 colon
[14] = system: HL-60(TB) leukemia
[15] = system: HOP-62 NSCLC
[16] = system: HOP-92 NSCLC
[17] = system: HS 578T breast
[18] = system: HT29 colon
[19] = system: IGROV1 ovarian
[20] = system: K-562 leukemia
[21] = system: KM12 colon
[22] = system: M14 melanoma
[23] = system: MCF7 breast
[24] = system: MDA-MB-231 breast
[25] = system: MDA-MB-435
[26] = system: MOLT-4 leukemia
[27] = system: NCI-H226 lung
[28] = system: NCI-H23 lung
[29] = system: NCI-H460 lung
[30] = system: NCI-H522 lung
[31] = system: NCI/ADR-RES ovarian
[32] = system: OVCAR-3 ovarian
[33] = system: OVCAR-4 ovarian
[34] = system: OVCAR-5 ovarian
[35] = system: OVCAR-8 ovarian
[36] = system: PC-3 prostate
[37] = system: RPMI-8226 leukemia
[38] = system: RXF 393 renal
[39] = system: SF-268 CNS
[40] = system: SF-295 CNS
[41] = system: SF-539 CNS
[42] = system: SK-MEL-2 melanoma
[43] = system: SK-MEL-28 melanoma
[44] = system: SK-MEL-5 melanoma
[45] = system: SK-OV-3 ovarian
[46] = system: SN12C renal
[47] = system: SNB-19 CNS
[48] = system: SNB-75 CNS
[49] = system: SW-620 colon
[50] = system: T-47D breast
[51] = system: TK-10 renal
[52] = system: U251 CNS
[53] = system: UACC-257 melanoma
[54] = system: UACC-62 melanoma
[55] = system: UO-31 renal
[56] = system: LOX IMVI melanoma
[57] = system: MALME-3M melanoma
[58] = system: SR leukemia

## COc1ccc2c(c1)CCN=C2c1ccccc1CCCCl
[1]
  TGI: > 100 µM
[2]
  TGI: > 100 µM
[3]
  TGI: > 100 µM
[4]
  TGI: 64.9 µM
[5]
  TGI: > 100 µM
[6]
  TGI: 70.2 µM
[7]
  TGI: > 100 µM
[8]
  TGI: 23.4 µM
[9]
  TGI: > 100 µM
[10]
  TGI: > 100 µM
[11]
  TGI: 24.9 µM
[12]
  TGI: 61.3 µM
[13]
  TGI: 74.1 µM
[14]
  TGI: > 100 µM
[15]
  TGI: > 100 µM
[16]
  TGI: > 100 µM
[17]
  TGI: 96.5 µM
[18]
  TGI: 58.2 µM
[19]
  TGI: > 100 µM
[20]
  TGI: > 100 µM
[21]
  TGI: > 100 µM
[22]
  TGI: > 100 µM
[23]
  TGI: > 100 µM
[24]
  TGI: 63.7 µM
[25]
  TGI: > 100 µM
[26]
  TGI: 42.4 µM
[27]
  TGI: > 100 µM
[28]
  TGI: 39.8 µM
[29]
  TGI: 28.5 µM
[30]
  TGI: 52.5 µM
[31]
  TGI: > 100 µM
[32]
  TGI: > 100 µM
[33]
  TGI: 52.2 µM
[34]
  TGI: > 100 µM
[35]
  TGI: > 100 µM
[36]
  TGI: > 100 µM
[37]
  TGI: 11.8 µM
[38]
  TGI: 82.1 µM
[39]
  TGI: > 100 µM
[40]
  TGI: > 100 µM
[41]
  TGI: 45.6 µM
[42]
  TGI: > 100 µM
[43]
  TGI: > 100 µM
[44]
  TGI: 13.3 µM
[45]
  TGI: > 100 µM
[46]
  TGI: 54.4 µM
[47]
  TGI: 40.1 µM
[48]
  TGI: > 100 µM
[49]
  TGI: > 100 µM
[50]
  TGI: > 100 µM
[51]
  TGI: > 100 µM
[52]
  TGI: > 100 µM
[53]
  TGI: > 100 µM
[54]
  TGI: > 100 µM
[55]
  TGI: 26.7 µM

## O=C(N/N=C/c1c(Cl)cccc1Cl)c1ccc(C(F)(F)F)nc1Nc1cccc(C(F)(F)F)c1
[1]
  GI50: 0.856 µM
  TGI: 3.25 µM
[2]
  GI50: 0.603 µM
  TGI: 2.39 µM
[3]
  GI50: 1.54 µM
  TGI: > 36.1 µM
[4]
  GI50: 1.26 µM
  TGI: 11.3 µM
[5]
  GI50: 2.6 µM
  TGI: 9 µM
[6]
  GI50: 1.03 µM
  TGI: 13.8 µM
[7]
  GI50: 0.34 µM
  TGI: 8.98 µM
[8]
  GI50: 0.67 µM
  TGI: 2.59 µM
[9]
  GI50: 1.79 µM
  TGI: > 32.8 µM
[10]
  GI50: 0.886 µM
  TGI: > 27.9 µM
[11]
  GI50: 3.97 µM
  TGI: > 100 µM
[12]
  GI50: 0.461 µM
  TGI: 38.8 µM
[13]
  GI50: 0.437 µM
  TGI: > 100 µM
[14]
  GI50: 0.552 µM
[15]
  GI50: 1.29 µM
  TGI: 14.4 µM
[16]
  GI50: 0.293 µM
  TGI: 3 µM
[17]
  GI50: 1.75 µM
  TGI: 18 µM
[18]
  GI50: 1.24 µM
  TGI: > 100 µM
[19]
  GI50: 1.01 µM
  TGI: 13.9 µM
[20]
  GI50: 0.491 µM
[21]
  GI50: 1.1 µM
  TGI: > 30 µM
[56]
  GI50: 0.677 µM
  TGI: 11.5 µM
[22]
  GI50: 1.6 µM
  TGI: > 31.1 µM
[57]
  GI50: 2.17 µM
  TGI: 9.23 µM
[23]
  GI50: 1.03 µM
  TGI: > 35.8 µM
[24]
  GI50: 1.51 µM
  TGI: 11.1 µM
[25]
  GI50: 2.37 µM
  TGI: > 100 µM
[26]
  GI50: 0.394 µM
  TGI: 7.7 µM
[27]
  GI50: 1.53 µM
  TGI: 6.74 µM
[28]
  GI50: 1.42 µM
  TGI: > 21.8 µM
[29]
  GI50: 0.419 µM
  TGI: 6.13 µM
[30]
  GI50: 1.76 µM
  TGI: > 33.6 µM
[31]
  GI50: 0.616 µM
[32]
  GI50: 0.284 µM
  TGI: 6.47 µM
[33]
  GI50: 0.466 µM
  TGI: > 100 µM
[34]
  GI50: 4.06 µM
  TGI: > 30.2 µM
[35]
  GI50: 1.07 µM
  TGI: > 45.6 µM
[36]
  GI50: 0.767 µM
  TGI: > 21.1 µM
[37]
  GI50: 0.375 µM
  TGI: 10.5 µM
[39]
  GI50: 1.22 µM
  TGI: > 29.3 µM
[40]
  GI50: 1.16 µM
  TGI: > 29.2 µM
[41]
  GI50: 2.11 µM
  TGI: 8.09 µM
[42]
  GI50: 1.87 µM
  TGI: 8.19 µM
[43]
  GI50: 1.82 µM
  TGI: > 37.5 µM
[44]
  GI50: 0.829 µM
  TGI: 2.84 µM
[45]
  GI50: 1.69 µM
  TGI: 6.3 µM
[46]
  GI50: 0.912 µM
  TGI: 20.8 µM
[47]
  GI50: 1.55 µM
  TGI: > 100 µM
[48]
  GI50: 2.46 µM
  TGI: 54.6 µM
[58]
  GI50: 0.457 µM
  TGI: 14.4 µM
[49]
  GI50: 0.458 µM
  TGI: > 51.1 µM
[50]
  GI50: 0.971 µM
  TGI: 11.8 µM
[51]
  GI50: 2.87 µM
  TGI: > 91.4 µM
[52]
  GI50: 0.588 µM
  TGI: 12.8 µM
[53]
  GI50: 1.02 µM
  TGI: > 100 µM
[54]
  GI50: 1.39 µM
  TGI: 4.12 µM
[55]
  GI50: 1.49 µM
  TGI: 5.82 µM
